The text below walks through data of ChEMBL document CHEMBL5154778, “Discovery and Structure-Based Optimization of Novel Atg4B Inhibitors for the Treatment of Castration-Resistant Prostate Cancer” (J Med Chem, 2022).

One test is filed under the species Homo sapiens. Description: Selectivity ratio of IC50 for inhibition of PLA2 (unknown origin) to IC50 for inhibition of recombinant ATG4B (unknown origin) expressed in Escherichia coli BL21(DE3) pLysS cells.
For test [1], the target named is T1, Cysteine protease ATG4B (Homo sapiens, UniProt Q9Y4P1).
T1 sequence (Q9Y4P1 whole entry): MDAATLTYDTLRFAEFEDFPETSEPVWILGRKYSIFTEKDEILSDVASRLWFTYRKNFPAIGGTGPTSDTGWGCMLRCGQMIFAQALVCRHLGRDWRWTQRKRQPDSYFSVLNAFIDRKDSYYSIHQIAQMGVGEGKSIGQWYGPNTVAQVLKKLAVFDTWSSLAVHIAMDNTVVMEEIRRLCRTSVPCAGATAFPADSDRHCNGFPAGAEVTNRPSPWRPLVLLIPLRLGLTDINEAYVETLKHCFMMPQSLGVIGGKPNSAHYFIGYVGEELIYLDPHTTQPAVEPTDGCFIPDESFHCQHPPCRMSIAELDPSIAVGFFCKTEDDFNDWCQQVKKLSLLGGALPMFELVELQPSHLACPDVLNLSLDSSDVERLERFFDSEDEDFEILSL
Description: Inhibition of recombinant ATG4B (unknown origin) expressed in Escherichia coli BL21(DE3) pLysS cells using LC3-GST as substrate incubated for 3 hrs by coomassie brilliant blue staining based assay.

A further test has as its target Phospholipase A2 (Homo sapiens, UniProt P04054). Description: Inhibition of PLA2 (unknown origin).
The test system of test [2] is LNCaP. In words: Induction of autophagy in human LNCaP cells assessed as increase in GABARAP2 level at 10 uM preincubated for 2 hrs followed by medium change into aminoacid free medium for 3 hrs by immunoblotting analysis. The format is functional, cell-based. The note with it: time 5.0 hrs. Background: Immunoblotting shows a protein as a band on a membrane.
Test [3] deals with LNCaP. Description: Induction of autophagy in human LNCaP cells assessed as increase in Ser403-phosphorylated P62 level at 1 to 10 uM incubated for 24 hrs by Western blot analysis. Format: functional, cell-based. To be noted: dose 1-10 µM.
Test [4] has as its system LNCaP. In words: Induction of apoptosis in human LNCaP cells assessed as increase in cleaved PARP expression at 10 uM preincubated for 2 hrs followed by enzalutamide addition and measured after 24 hrs by Western blotting analysis. Format: functional, cell-based. To be noted: time 26.0 hrs.
Test [5] concerns LNCaP. In words: Induction of autophagy in human LNCaP cells assessed as increase in LC3-2 level at 1 to 10 uM incubated for 24 hrs by Western blot analysis. The format is functional, cell-based. To be noted: dose 1-10 µM.
Test [6] relates to LNCaP. In words: Induction of apoptosis in human LNCaP cells assessed as increase in cleaved capase-9 expression at 10 uM preincubated for 2 hrs followed by enzalutamide addition and measured after 24 hrs by Western blotting analysis. The note with it: time 26.0 hrs. The format is functional, cell-based.
Test [7] has as its system LNCaP. In words: Induction of apoptosis in human LNCaP cells assessed PARP cleavage at 10 uM incubated for 24 hrs by immunoblotting analysis. The format is functional, cell-based.
Test [8] deals with LNCaP. Description: Anticancer activity against human LNCaP cells assessed as reduction in cell viability incubated for 72 hrs by alamar blue assay. Format: functional, cell-based. The note with it: DDE = dose-dependent effect.
Test [9] concerns LNCaP. Description: Induction of apoptosis in human LNCaP cells transfected with Atg4B siRNA at 10 uM incubated for 24 hrs by immunoblotting analysis. Format: functional, cell-based.
Test [10] deals with T1, Cysteine protease ATG4B. In words: Inhibition of recombinant ATG4B (unknown origin) expressed in Escherichia coli BL21(DE3) pLysS cells assessed as inhibition constant using LC3-GST as substrate incubated for 3 hrs by coomassie brilliant blue staining based assay.
For test [11], the system named is LNCaP. Description: Induction of apoptosis in human LNCaP cells assessed as increase in cleaved PARP level at 5 uM preincubated for 2 hrs followed by enzalutamide addition and measured after 24 hrs by immunoblotting analysis. The format is functional, cell-based. To be noted: time 26.0 hrs.
Test [12] has as its system LNCaP. In words: Inhibition of AFM induced autophagy in human LNCaP cells assessed as restoration of p62 expression preincubated for 2 hrs followed by medium change into aminoacid free medium for 24 hrs by immunoblotting analysis. The note with it: dose 1-10 µM, time 26.0 hrs, DDE = dose-dependent effect. The format is functional, cell-based.
Test [13] concerns LNCaP. In words: Induction of apoptosis in human LNCaP cells assessed as increase in cleaved PARP level at 5 uM preincubated for 2 hrs followed by apalutamide addition and measured after 24 hrs by immunoblotting analysis. Format: functional, cell-based. The note with it: time 26.0 hrs.
The subject of test [14] is LNCaP. In words: Inhibition of AFM induced autophagy in human LNCaP cells assessed as decrease in autophagic vesicles at 1 uM preincubated for 2 hrs followed by medium change into aminoacid free medium for 3 hrs by DAP green staining based assay. The format is functional, cell-based. The note with it: time 5.0 hrs.
The subject of test [15] is LNCaP. Description: Induction of apoptosis in human LNCaP cells assessed as increase in cleaved PARP level at 5 uM preincubated for 2 hrs followed by abiraterone addition and measured after 24 hrs by immunoblotting analysis. Format: functional, cell-based. To be noted: time 26.0 hrs.
The nature of test [16]: Inhibition of AFM induced autophagy in human LNCaP cells assessed as decrease in autophagic vesicles at 5 uM preincubated for 2 hrs followed by medium change into aminoacid free medium for 3 hrs by DAP green staining based assay. The format is functional. To be noted: time 5 hrs.
For test [17], the system named is LNCaP. In words: Induction of apoptosis in human LNCaP cells assessed as increase in cleaved PARP level at 5 uM preincubated for 2 hrs followed by cabazitaxel addition and measured after 24 hrs by immunoblotting analysis. The format is functional, cell-based. The note with it: time 26.0 hrs.
Test [18] deals with T2, Cysteine protease ATG4B (Homo sapiens) (UniProt Q9Y4P1).
T2 sequence (whole entry): T1 sequence (Q9Y4P1 whole entry)
In words: Inhibition of recombinant ATG4B (unknown origin) expressed in Escherichia coli BL21(DE3) pLysS cells at 10 uM using LC3-GST as substrate incubated for 3 hrs by coomassie brilliant blue staining based assay.

In test [19] the test system is LNCaP. In words: Inhibition of enzalutamide induced autophagy in human LNCaP cells at 10 uM preincubated for 2 hrs followed by enzalutamide addition and measured after 24 hrs by DAP green staining based assay. The format is functional, cell-based. The note with it: time 26.0 hrs.
In test [20] the test system is LNCaP. Description: Induction of apoptosis in human LNCaP cells assessed as increase in cleaved capase-9 expression at 10 uM preincubated for 2 hrs followed by abiraterone addition and measured after 24 hrs by Western blotting analysis. Format: functional, cell-based. The note with it: time 26.0 hrs.
Test [21] deals with LNCaP. In words: Inhibition of AFM induced autophagy in human LNCaP cells assessed as suppression of autophagosome by DAP green staining based assay. The format is functional, cell-based.
The target in test [22] is T2, Cysteine protease ATG4B (Homo sapiens). In words: Inhibition of recombinant ATG4B (unknown origin) expressed in Escherichia coli BL21(DE3) pLysS cells at 100 uM using LC3-GST as substrate incubated for 3 hrs by coomassie brilliant blue staining based assay.
Test [23] shares this target. Description: Reversible inhibition of recombinant ATG4B (unknown origin) expressed in Escherichia coli BL21(DE3) pLysS cells at 100 uM using LC3-GST as substrate preincubated for 30 mins with 0.3 uM LC3-GST followed by dialysis and again incubated with 3 uM LC3-GST for 15 mins by coomassie brilliant blue staining based assay. The note with it: time 45.0 min.
Test [24] has the same target. In words: Inhibition of recombinant ATG4B (unknown origin) expressed in Escherichia coli BL21(DE3) pLysS cells at 20 to 50 uM using LC3-GST as substrate by coomassie brilliant blue staining based assay. The note with it: dose 20-50 µM, time 15-180 min, TDE = time-dependent effect.
Test [25] has as its system LNCaP. In words: Inhibition of abiraterone induced autophagy in human LNCaP cells at 10 uM preincubated for 2 hrs followed by abiraterone addition and measured after 24 hrs by DAP green staining based assay. The format is functional, cell-based. The note with it: time 26.0 hrs.
Test [26] deals with LNCaP. In words: Inhibition of AFM induced autophagy in human LNCaP cells assessed as restoration of p62 expression at 5 uM by Western blot analysis. Format: functional, cell-based.
For test [27], the system named is LNCaP. In words: Induction of apoptosis in human LNCaP cells assessed as increase in cleaved PARP expression at 10 uM preincubated for 2 hrs followed by abiraterone addition and measured after 24 hrs by Western blotting analysis. Format: functional, cell-based. To be noted: time 26.0 hrs.

Activity calls are given as the source filed them. The calls are words filed in the database; no cut-off is given here.

Phospholipase A2, sequence (P04054 whole entry): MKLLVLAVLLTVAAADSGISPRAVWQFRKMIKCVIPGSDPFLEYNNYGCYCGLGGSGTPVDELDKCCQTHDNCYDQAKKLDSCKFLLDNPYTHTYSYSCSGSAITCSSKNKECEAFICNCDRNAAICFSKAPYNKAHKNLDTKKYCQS

With `CCCCCCCCCCCCCc1ccc(C(=O)/C=C/C(=O)O)cc1`, the Ratio IC50 in the test filed under Homo sapiens was 85. Besides, the half-inhibitory concentration (IC50) (as a rule, the midpoint of a concentration-inhibition curve) was determined as 21 µM on Cysteine protease ATG4B [1] and 7.1 µM against Phospholipase A2.

Consider `CCCCCCCCCCCCc1ccc(C(=O)/C=C/C(=O)O)cc1`, for which the Ratio IC50 in the test listed under Homo sapiens came out at 24. Moreover, the IC50 on Cysteine protease ATG4B [1] was found to be 13 µM; against Phospholipase A2, 1.3 µM.

With `CCN(CC)CCCC(C)Nc1ccnc2cc(Cl)ccc12` (stereo unspecified), the result in the test with LNCaP [2] was Active.

Consider `CCCCCc1ccc(C(=O)/C=C/C(=O)O)cc1`, for which the Ratio IC50 in the test listed under Homo sapiens came out at 200. Moreover, the results for the IC50 at Cysteine protease ATG4B [1] and on Phospholipase A2 were 36 µM and 30 µM, respectively.

On to `O=C(O)/C=C/C(=O)c1ccccc1`, for which, at Cysteine protease ATG4B [1], the IC50 was 580 µM.

Consider `C[C@]12CC[C@H](O)CC1=CC[C@@H]1[C@@H]2CC[C@]2(C)C(c3cccnc3)=CC[C@@H]12`, for which the outcome with LNCaP [3], in the test with LNCaP [4], in the test on LNCaP [5], in the test on LNCaP [6], in the test with LNCaP [7] and in the test on LNCaP [9] was Active. Also, in the test on LNCaP [8], the Activity entry was “Dde”.

Regarding `CCCCCCCCCCCCCCCCCCCc1ccc(C(=O)/C=C/C(=O)O)cc1`, the Ratio IC50 in the test listed under Homo sapiens worked out at 12. Further, the results for the IC50 on Cysteine protease ATG4B [1] and against Phospholipase A2 were 73 µM and 0.35 µM, respectively.

Take `CCCc1ccc(C(=O)/C=C/C(=O)O)cc1`: at Cysteine protease ATG4B [1], the IC50 amounted to 130 µM.

Regarding `CCCCCCCCCCc1ccc(C(=O)/C=C/C(=O)O)cc1`, the Ratio IC50 in the test filed under Homo sapiens stood at 30. Further, the IC50 was found to be 13 µM on Cysteine protease ATG4B [1] and 1.6 µM at Phospholipase A2.

Turning to `CCCCCCCCCCCc1ccc(C(=O)/C=C/C(=O)O)cc1`, at Cysteine protease ATG4B [10], the Ki (in general, a measure of affinity in units of concentration, obtained from inhibition or displacement) came to 3.1 µM. Besides, the Ratio IC50 in the test listed under Homo sapiens came out at 80. The outcome in the test with LNCaP [11], with LNCaP [13], with LNCaP [15] and in the test on LNCaP [17] was Active. Further, the inhibition (commonly how much of the control response was suppressed) in the test with LNCaP [12] is “Dde”. In addition, the inhibition result in the test on LNCaP [14] was “Active”. Further, the figures for the IC50 on Cysteine protease ATG4B [1] and on Phospholipase A2 were 11 µM and 3.5 µM, respectively. Moreover, the inhibition at 5 µM in [16] stood at 100%.

`CCCCCCCCCCCCCCCCCc1ccc(C(=O)/C=C/C(=O)O)cc1`: the IC50 at Cysteine protease ATG4B [1] turned out to be 47 µM.

Consider `CCCCCCCCCc1ccc(C(=O)/C=C/C(=O)O)cc1`, for which, in the test listed under Homo sapiens, the Ratio IC50 came out at 93. The IC50 on Cysteine protease ATG4B [1] was determined as 21 µM; against Phospholipase A2 it was 8 µM.

For the compound `CCCCCCCCCCCCCCCc1ccc(C(=O)/C=C/C(=O)O)cc1`, in the test filed under Homo sapiens, the Ratio IC50 is 29. For the same compound, the results for the IC50 at Cysteine protease ATG4B [1] and against Phospholipase A2 were 46 µM and 5.4 µM, respectively.

In the case of `CCCCCCCCCCCCCCCCCCCCCc1ccc(C(=O)/C=C/C(=O)O)cc1`, the IC50 on Cysteine protease ATG4B [1] was 42 µM.

For the compound `CCCCCCCCCCCCCCCCCCc1ccc(C(=O)/C=C/C(=O)O)cc1`, the inhibition result (in [18]; with LNCaP [19]; in the test with LNCaP [21]; in test [22]; in test [23]; with LNCaP [25]) was “Active” throughout. Moreover, the inhibition entry in the test with LNCaP [26] was “Active”. The Ki on Cysteine protease ATG4B [10] was determined as 4.6 µM. Besides, in the test listed under Homo sapiens, the Ratio IC50 amounted to 1. In addition, the outcome in the test on LNCaP [20] and with LNCaP [27] was Active. Further, the inhibition result in [24] was “Tde”. Besides, the IC50 at Cysteine protease ATG4B [1] worked out at 12 µM; against Phospholipase A2, 0.049 µM.

Regarding `CCCCCCCc1ccc(C(=O)/C=C/C(=O)O)cc1`, in the test listed under Homo sapiens, the Ratio IC50 stood at 56. In addition, the IC50 at Cysteine protease ATG4B [1] came out at 26 µM; at Phospholipase A2, 5.9 µM.
